Source: ChEMBL document CHEMBL1153037, “Synthesis and structure-activity relationship studies of cytotoxic anhydrovinblastine amide derivatives” (J Nat Prod, 2009)
Where a name gives a salt, the structure may show the parent alone.

Key:
A549 = assay: Cytotoxicity against human A549 cells by sulforhodamine B assay; format: functional, cell-based
HeLa = assay: Cytotoxicity against human HeLa cells by sulforhodamine B assay; format: functional, cell-based
CCRF S-180 [1] = assay: Antitumor activity against mouse S180 cells xenografted in Kunming mouse at 10 mg/kg, iv administered on day 1 and 4; format: functional; settings: for inhibition in vivo at 10 mg/kg: Mus musculus
CCRF S-180 [2] = assay: Toxicity against mouse S180 cells xenografted in Kunming mouse at 10 mg/kg, iv administered on day 1 and 4; format: functional, organism-based; design: dose 10 mg/kg
CCRF S-180 [3] = assay: Antitumor activity against mouse S180 cells xenografted in Kunming mouse at 20 mg/kg, iv administered as single dose on day 1; format: functional; settings: CCRF S-180, 24 h

With `CCC1=C[C@@H]2CN(CCc3c([nH]c4ccccc34)[C@@](C(=O)OC)(c3cc4c(cc3OC)N(C)[C@H]3[C@@](O)(CNC(=O)c5ccc(OC)cc5)[C@H](OC(C)=O)[C@]5(CC)C=CCN6CC[C@]43[C@@H]65)C2)C1` the IC50 (A549; Homo sapiens, A549) was 30 nM and the IC50 (HeLa) was 139 nM.
`CCC1=C[C@@H]2CN(CCc3c([nH]c4ccccc34)[C@@](C(=O)OC)(c3cc4c(cc3OC)N(C)[C@H]3[C@@](O)(CNC(=O)C(C)C)[C@H](OC(C)=O)[C@]5(CC)C=CCN6CC[C@]43[C@@H]65)C2)C1` gave an IC50 (A549; Homo sapiens, A549) of 101 nM and an IC50 (HeLa) of 132 nM.
`CCC1=C[C@@H]2CN(C1)Cc1c([nH]c3ccccc13)[C@@](C(=O)OC)(c1cc3c(cc1OC)N(C)[C@H]1[C@@](O)(C(=O)OC)[C@H](OC(C)=O)[C@]4(CC)C=CCN5CC[C@]31[C@@H]54)C2` [VINORELBINE TARTRATE] showed an inhibition in vivo at 10 mg/kg (CCRF S-180 [1]; CCRF S-180, iv, 24 h) of 62.5%.
In the case of `CCC1=C[C@@H]2CN(CCc3c([nH]c4ccccc34)[C@@](C(=O)OC)(c3cc4c(cc3OC)N(C)[C@H]3[C@@](O)(CNC(C)=O)[C@H](OC(C)=O)[C@]5(CC)C=CCN6CC[C@]43[C@@H]65)C2)C1`, the IC50 (A549; Homo sapiens, A549) is reported as 22 nM and the IC50 (HeLa) is reported as 444 nM.
With `CCC(=O)NC[C@@]1(O)[C@H](OC(C)=O)[C@]2(CC)C=CCN3CC[C@@]4(c5cc([C@@]6(C(=O)OC)C[C@@H]7C=C(CC)CN(CCc8c6[nH]c6ccccc86)C7)c(OC)cc5N(C)[C@@H]14)[C@@H]32` the IC50 (A549; Homo sapiens, A549) was 43 nM, the inhibition in vivo at 10 mg/kg (CCRF S-180 [1]; CCRF S-180, 24 h) was 84.4% and the Activity (CCRF S-180 [2]) was “Not toxic”. For the same compound, the IC50 (HeLa) was 57 nM and the inhibition in vivo at 20 mg/kg (CCRF S-180 [3]) was 90%.
For `CCC1=C[C@@H]2CN(CCc3c([nH]c4ccccc34)[C@@](C(=O)OC)(c3cc4c(cc3OC)N(C)[C@H]3[C@@](O)(CNC(=O)C5CCC5)[C@H](OC(C)=O)[C@]5(CC)C=CCN6CC[C@]43[C@@H]65)C2)C1`, the IC50 (A549; Homo sapiens, A549) was 34 nM and the IC50 (HeLa) was 68 nM.
In the case of `CCC1=C[C@@H]2CN(CCc3c([nH]c4ccccc34)[C@@](C(=O)OC)(c3cc4c(cc3OC)N(C)[C@H]3[C@@](O)(CNC(=O)C5CC5)[C@H](OC(C)=O)[C@]5(CC)C=CCN6CC[C@]43[C@@H]65)C2)C1`, the IC50 (A549; Homo sapiens, A549) is reported as 26 nM, the inhibition in vivo at 10 mg/kg (CCRF S-180 [1]; CCRF S-180, 24 h) is reported as 81.3% and the IC50 (HeLa) is reported as 35 nM. The inhibition in vivo at 20 mg/kg (CCRF S-180 [3]) was 88.8%.
With `CCC1=C[C@@H]2CN(CCc3c([nH]c4ccccc34)[C@@](C(=O)OC)(c3cc4c(cc3OC)N(C)[C@H]3[C@@](O)(CNC(=O)c5ccccc5OC)[C@H](OC(C)=O)[C@]5(CC)C=CCN6CC[C@]43[C@@H]65)C2)C1` the IC50 (A549; Homo sapiens, A549) was 10 nM and the IC50 (HeLa) was 21 nM.
With `CCC1=C[C@@H]2CN(CCc3c([nH]c4ccccc34)[C@@](C(=O)OC)(c3cc4c(cc3OC)N(C)[C@H]3[C@@](O)(CNC(=O)c5ccc6c(c5)OCO6)[C@H](OC(C)=O)[C@]5(CC)C=CCN6CC[C@]43[C@@H]65)C2)C1` the IC50 (A549; Homo sapiens, A549) was 8 nM, the inhibition in vivo at 10 mg/kg (CCRF S-180 [1]; CCRF S-180, 24 h) was 58.1% and the Activity (CCRF S-180 [2]) was “Not toxic”. The IC50 (HeLa) was 33 nM and the inhibition in vivo at 20 mg/kg (CCRF S-180 [3]) was 66.3%.
Work on `CCC1=C[C@@H]2CN(CCc3c([nH]c4ccccc34)[C@@](C(=O)OC)(c3cc4c(cc3OC)N(C)[C@H]3[C@@](O)(CNC(=O)c5ccc(Cl)cc5)[C@H](OC(C)=O)[C@]5(CC)C=CCN6CC[C@]43[C@@H]65)C2)C1` yielded an IC50 (A549; Homo sapiens, A549) of 25 nM and an IC50 (HeLa) of 47 nM.
For `CCC1=C[C@@H]2CN(CCc3c([nH]c4ccccc34)[C@@](C(=O)OC)(c3cc4c(cc3OC)N(C)[C@H]3[C@@](O)(CNC(=O)c5cccc(Cl)c5)[C@H](OC(C)=O)[C@]5(CC)C=CCN6CC[C@]43[C@@H]65)C2)C1`, the IC50 (A549; Homo sapiens, A549) was 26 nM and the IC50 (HeLa) was 67 nM.
For `CCC1=C[C@@H]2CN(CCc3c([nH]c4ccccc34)[C@@](C(=O)OC)(c3cc4c(cc3OC)N(C)[C@H]3[C@@](O)(CNC(=O)CC(C)C)[C@H](OC(C)=O)[C@]5(CC)C=CCN6CC[C@]43[C@@H]65)C2)C1`, the IC50 (A549; Homo sapiens, A549) was 152 nM and the IC50 (HeLa) was 85 nM.
With `CCC1=C[C@@H]2CN(CCc3c([nH]c4ccccc34)[C@@](C(=O)OC)(c3cc4c(cc3OC)N(C)[C@H]3[C@@](O)(CNC(=O)C(C)(C)C)[C@H](OC(C)=O)[C@]5(CC)C=CCN6CC[C@]43[C@@H]65)C2)C1` the IC50 (A549; Homo sapiens, A549) was 95 nM and the IC50 (HeLa) was 61 nM.
With `CCC1=C[C@@H]2CN(CCc3c([nH]c4ccccc34)[C@@](C(=O)OC)(c3cc4c(cc3OC)N(C)[C@H]3[C@@](O)(CNC(=O)c5ccncc5)[C@H](OC(C)=O)[C@]5(CC)C=CCN6CC[C@]43[C@@H]65)C2)C1` the IC50 (A549; Homo sapiens, A549) was 27 nM and the IC50 (HeLa) was 24 nM.
For `CCC1=C[C@@H]2CN(CCc3c([nH]c4ccccc34)[C@@](C(=O)OC)(c3cc4c(cc3OC)N(C)[C@H]3[C@@](O)(CNC(=O)Cc5ccccc5)[C@H](OC(C)=O)[C@]5(CC)C=CCN6CC[C@]43[C@@H]65)C2)C1`, the IC50 (A549; Homo sapiens, A549) was 39 nM and the IC50 (HeLa) was 78 nM.
For `CCC1=C[C@@H]2CN(CCc3c([nH]c4ccccc34)[C@@](C(=O)OC)(c3cc4c(cc3OC)N(C)[C@H]3[C@@](O)(CNC(=O)c5ccccc5Cl)[C@H](OC(C)=O)[C@]5(CC)C=CCN6CC[C@]43[C@@H]65)C2)C1`, the IC50 (A549; Homo sapiens, A549) was 24 nM and the IC50 (HeLa) was 89 nM.
With `CCC1=C[C@@H]2CN(CCc3c([nH]c4ccccc34)[C@@](C(=O)OC)(c3cc4c(cc3OC)N(C)[C@H]3[C@@](O)(CNC(=O)CC(C)(C)C)[C@H](OC(C)=O)[C@]5(CC)C=CCN6CC[C@]43[C@@H]65)C2)C1` the IC50 (A549; Homo sapiens, A549) was 115 nM and the IC50 (HeLa) was 93 nM.
`CCCC(=O)NC[C@@]1(O)[C@H](OC(C)=O)[C@]2(CC)C=CCN3CC[C@@]4(c5cc([C@@]6(C(=O)OC)C[C@@H]7C=C(CC)CN(CCc8c6[nH]c6ccccc86)C7)c(OC)cc5N(C)[C@@H]14)[C@@H]32` showed an IC50 (A549; Homo sapiens, A549) of 96 nM and an IC50 (HeLa) of 97 nM.
`CCC1=C[C@@H]2CN(CCc3c([nH]c4ccccc34)[C@@](C(=O)OC)(c3cc4c(cc3OC)N(C)[C@H]3[C@@](O)(CNC(=O)c5ccccc5)[C@H](OC(C)=O)[C@]5(CC)C=CCN6CC[C@]43[C@@H]65)C2)C1` showed an IC50 (A549; Homo sapiens, A549) of 27 nM and an IC50 (HeLa) of 26 nM.
`CCC1=C[C@@H]2CN(CCc3c([nH]c4ccccc34)[C@@](C(=O)OC)(c3cc4c(cc3OC)N(C)[C@H]3[C@@](O)(CNC(=O)c5ccc(F)cc5)[C@H](OC(C)=O)[C@]5(CC)C=CCN6CC[C@]43[C@@H]65)C2)C1` showed an IC50 (A549; Homo sapiens, A549) of 20 nM and an IC50 (HeLa) of 25 nM.
`CCC1=C[C@@H]2CN(C1)Cc1c([nH]c3ccccc13)[C@@](C(=O)OC)(c1cc3c(cc1OC)N(C)[C@H]1[C@@](O)(C(=O)OC)[C@H](OC(C)=O)[C@]4(CC)C=CCN5CC[C@]31[C@@H]54)C2` was tested, and the Activity (CCRF S-180 [2]) was “Not toxic”.
`CCC1=C[C@@H]2CN(CCc3c([nH]c4ccccc34)[C@@](C(=O)OC)(c3cc4c(cc3OC)N(C)[C@H]3[C@@](O)(CNC(=O)c5ccc([N+](=O)[O-])cc5)[C@H](OC(C)=O)[C@]5(CC)C=CCN6CC[C@]43[C@@H]65)C2)C1` was tested, and the IC50 (A549; Homo sapiens, A549) was 33 nM and the IC50 (HeLa) was 23 nM.
For `CCC1=C[C@@H]2CN(C1)Cc1c([nH]c3ccccc13)[C@@](C(=O)OC)(c1cc3c(cc1OC)N(C)[C@H]1[C@@](O)(C(=O)OC)[C@H](OC(C)=O)[C@]4(CC)C=CCN5CC[C@]31[C@@H]54)C2` [VINORELBINE], the IC50 (A549; a549) was 30 nM and the “inhibition (INH)” value (CCRF S-180 [1]) was 69.4%.
